Data on eight molecules can be found in ChEMBL document CHEMBL1201862, “PubChem BioAssay data set” (2004).

Among the test systems are RPMI-8226; HOP-92; SNB-19; UACC-62; K562; HCT-15; SW-620; SN12C; MOLT-4; SF-268; NCI/ADR-RES; NCI-H23; UACC-257; HCC 2998; HCT-116; OVCAR-5; NCI-H460; KM12; CAKI-1; HL-60.
Holding throughout (assay): DTP human tumour cell line panel, 48 h

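Growth conditions: 96-well plates. Treatment: test compound, 48 hours, 5 concentrations. Analysis: linear interpolation between bracketing concentrations; unreached endpoints set to highest concentration. GI50 = concentration required for 50% inhibition of growth.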 Calls of active or inactive are those of the source. No stated cut-off is given here; in the data, active = GI50 up to about 1.1 µM and inactive = higher. Where a SMILES comes first, the peptide text is derived from it. The star is where a group is joined. Boc = CC(C)(C)OC(=O)*; OBn = c1ccc(CO*)cc1

For the molecule `COc1cc2c(cc1OC)[C@H](C)N1CCc3cc(OC)c(OC)cc3[C@@H]1C2`, the GI50 was > 100 µM (inactive) with RPMI-8226; > 100 µM (inactive) with HOP-92; > 100 µM (inactive) in the test with SNB-19; > 100 µM (inactive) in the test with UACC-62; > 100 µM (inactive) with K562; more than 100 µM in the test on HCT-15. Besides, the GI50 in the test on SW-620, in the test on SN12C, in the test with MOLT-4, in the test on SF-268, in the test on NCI/ADR-RES and in the test with NCI-H23 was > 100 µM (inactive) throughout. In addition, the GI50 with UACC-257, in the test on HCC 2998, with HCT-116, in the test on OVCAR-5, with NCI-H460 and with KM12 was > 100 µM (inactive) each time. The GI50 in the test on CAKI-1 and in the test on HL-60 was > 100 µM (inactive) each time.
With `COc1ccc(/C=C/C(=O)c2cccc(C(=O)/C=C/c3ccc(OC)c(OC)c3)n2)cc1OC`, the GI50 with RPMI-8226 was 3.23 µM (inactive); with HOP-92, > 100 µM (inactive); with SNB-19, 27 µM (inactive); in the test on UACC-62 it was 21.7 µM (inactive); with K562 it was 3.69 µM (inactive); with HCT-15 it was 14 µM. Further, the GI50 with SW-620 is 3.53 µM (inactive); with SN12C it was 15.5 µM (inactive); with MOLT-4, 2.82 µM (inactive); in the test on SF-268, 36.9 µM (inactive); in the test on NCI/ADR-RES, 24.8 µM (inactive); in the test with NCI-H23, 29.2 µM (inactive). For the same molecule, the GI50 is 39.6 µM (inactive) in the test on UACC-257; > 100 µM (inactive) with HCC 2998; 7.96 µM (inactive) in the test on HCT-116; 29.6 µM (inactive) in the test on OVCAR-5; 96.8 µM (inactive) with NCI-H460; > 55.6 µM (inactive) in the test on KM12. Further, the GI50 with CAKI-1 was > 57.9 µM (inactive); in the test on HL-60 it was 1.15 µM (inactive).
`CC(O)c1cc2c(s1)C(=O)c1c(C(C)O)csc1C2=O` (stereo unspecified): the GI50 was 0.15 µM (active) in the test on RPMI-8226; 0.248 µM (active) in the test on HOP-92; 0.33 µM (active) in the test on SNB-19; 0.0589 µM (active) in the test with UACC-62; 0.139 µM (active) in the test with K562; 0.133 µM with HCT-15. For the same molecule, the concentration for 50% growth inhibition (GI50) with SW-620 is 0.118 µM (active); with SN12C, 0.138 µM (active); with MOLT-4 it was 0.181 µM (active); in the test on SF-268, 0.249 µM (active); in the test on NCI/ADR-RES, 0.146 µM (active); in the test on NCI-H23, 0.0561 µM (active). Also, the GI50 with UACC-257 is 0.0803 µM (active); in the test with HCC 2998, 0.351 µM (active); in the test with HCT-116, 0.14 µM (active); with OVCAR-5, 0.277 µM (active); with NCI-H460, 0.0451 µM (active); in the test on KM12, 0.249 µM (active). The GI50 in the test on CAKI-1 was 0.382 µM (active); with HL-60 it was 0.0113 µM (active).
For `O=C1c2ccccc2C(=O)c2oc(Br)cc21`, the GI50 is 1.75 µM (inactive) in the test on RPMI-8226; 2.02 µM (inactive) in the test on HOP-92; 1.5 µM (inactive) with SNB-19; 0.544 µM (active) in the test on UACC-62; 2.12 µM (inactive) with K562; 0.566 µM in the test with HCT-15. The GI50 with SW-620 was 0.34 µM (active); with SN12C, 0.953 µM (active); in the test on MOLT-4, 1.8 µM (inactive); in the test with SF-268, 1.87 µM (inactive); with NCI/ADR-RES, 2.22 µM (inactive); in the test on NCI-H23, 0.244 µM (active). Besides, the 50% growth inhibitory concentration (GI50) was 0.266 µM (active) with UACC-257; 1.82 µM (inactive) in the test on HCC 2998; 1.36 µM (inactive) in the test on HCT-116; 1.67 µM (inactive) in the test with OVCAR-5; 0.845 µM (active) in the test with NCI-H460; 1.23 µM (inactive) in the test on KM12. Also, the GI50 in the test on CAKI-1 is 1.76 µM (inactive); in the test with HL-60, 0.378 µM (active).
With `COC(=O)C1(Cc2ccccc2)Cc2ccccc2C1`, the GI50 was 20.4 µM (inactive) in the test with RPMI-8226; 11.5 µM (inactive) in the test on HOP-92; 21.5 µM (inactive) in the test with UACC-62; 15.8 µM (inactive) in the test on K562; 26.1 µM in the test on HCT-15; 35 µM (inactive) in the test with SW-620. Moreover, the GI50 with SN12C is 25.4 µM (inactive); in the test on MOLT-4, 14.8 µM (inactive); in the test on SF-268 it was 23.1 µM (inactive); in the test on NCI/ADR-RES, 21.9 µM (inactive); in the test on NCI-H23, 23.2 µM (inactive); in the test with UACC-257, 24.4 µM (inactive). The GI50 with HCC 2998 was 29.6 µM (inactive); in the test on HCT-116, 17.3 µM (inactive); with OVCAR-5, 31.8 µM (inactive); in the test on NCI-H460 it was 25.5 µM (inactive); in the test on KM12, 21.8 µM (inactive); with CAKI-1, 18.5 µM (inactive). Also, the GI50 in the test on HL-60 is 14.3 µM (inactive).
Turning to `CCCCCC(/C=N/N)C(O)(C(F)(F)F)C(F)(F)F` (stereo unspecified), the GI50 in the test on RPMI-8226 is > 10 µM (inactive); with HOP-92, 2.79 µM (inactive); with SNB-19, 4.08 µM (inactive); with UACC-62, 3.9 µM (inactive); with HCT-15 it was 3.48 µM; with SW-620, 2.53 µM (inactive). The GI50 in the test with SN12C is 3.23 µM (inactive); in the test on MOLT-4, > 10 µM (inactive); in the test with SF-268, 1.87 µM (inactive); with NCI/ADR-RES, > 10 µM (inactive); with NCI-H23, 3.58 µM (inactive); with UACC-257, 5 µM (inactive). The GI50 in the test with HCC 2998 is 6.78 µM (inactive); with HCT-116, 3.99 µM (inactive); in the test on OVCAR-5 it was 4.19 µM (inactive); in the test with NCI-H460, 3.34 µM (inactive); in the test on KM12, 4.44 µM (inactive); with CAKI-1 it was 2.47 µM (inactive). Besides, the GI50 in the test on HL-60 was > 10 µM (inactive).
Consider `CC(C)(C)OC(=O)NC(Cc1ccccc1)C(=O)NC(Cc1ccccc1)C(=O)NCC(=O)OCc1ccccc1` (stereo not drawn) (Boc-Phe-Phe-Gly-OBn; configuration not given here), for which the GI50 in the test with RPMI-8226 was 15.4 µM (inactive); in the test with HOP-92, > 100 µM (inactive); in the test on SNB-19, 35 µM (inactive); in the test with UACC-62, 16.3 µM (inactive); in the test on K562, 12.5 µM (inactive); in the test with HCT-15 it was 17.9 µM. In addition, the GI50 in the test with SW-620 was 12.8 µM (inactive); in the test on SN12C it was 21.7 µM (inactive); with MOLT-4, 22.2 µM (inactive); in the test on SF-268 it was 15.3 µM (inactive); with NCI/ADR-RES, > 100 µM (inactive); with NCI-H23, 22.8 µM (inactive). Also, the GI50 with UACC-257 was > 100 µM (inactive); in the test on HCC 2998, 16.3 µM (inactive); with HCT-116, 18.3 µM (inactive); in the test with OVCAR-5, 37.5 µM (inactive); in the test on NCI-H460 it was 23 µM (inactive); in the test on CAKI-1, 57.4 µM (inactive). Moreover, the GI50 in the test with HL-60 is 19.7 µM (inactive).
`O=S(=O)(c1cnccc1N1CCN(CCO)CC1)N1CCCC1`: the GI50 with RPMI-8226 was > 100 µM (inactive); in the test on HOP-92, > 100 µM (inactive); in the test with SNB-19, > 100 µM (inactive); with UACC-62, > 100 µM (inactive); in the test on K562, > 100 µM (inactive); in the test with HCT-15 it was more than 100 µM. The GI50 with SW-620, in the test on SN12C, in the test on SF-268, in the test on NCI/ADR-RES, with NCI-H23 and in the test on UACC-257 was > 100 µM (inactive) throughout. For the same molecule, the GI50 in the test with HCC 2998, with HCT-116, in the test with OVCAR-5, in the test on NCI-H460, with KM12 and with CAKI-1 was > 100 µM (inactive) throughout. In addition, the GI50 with HL-60 is > 100 µM (inactive).

The term GI50 denotes the concentration that inhibits growth by half.
